Values after ≈ are worked out from the molar mass of the structure shown.
Assays:
[1] = biological target: T1, Carnitine O-palmitoyltransferase 1, liver isoform (Homo sapiens, UniProt P50416); experiment: (§1) SUPPLEMENTARY: Inhibition of Carnitine palmitoyltransferase 1, liver isoform
T1 sequence (P50416 whole entry): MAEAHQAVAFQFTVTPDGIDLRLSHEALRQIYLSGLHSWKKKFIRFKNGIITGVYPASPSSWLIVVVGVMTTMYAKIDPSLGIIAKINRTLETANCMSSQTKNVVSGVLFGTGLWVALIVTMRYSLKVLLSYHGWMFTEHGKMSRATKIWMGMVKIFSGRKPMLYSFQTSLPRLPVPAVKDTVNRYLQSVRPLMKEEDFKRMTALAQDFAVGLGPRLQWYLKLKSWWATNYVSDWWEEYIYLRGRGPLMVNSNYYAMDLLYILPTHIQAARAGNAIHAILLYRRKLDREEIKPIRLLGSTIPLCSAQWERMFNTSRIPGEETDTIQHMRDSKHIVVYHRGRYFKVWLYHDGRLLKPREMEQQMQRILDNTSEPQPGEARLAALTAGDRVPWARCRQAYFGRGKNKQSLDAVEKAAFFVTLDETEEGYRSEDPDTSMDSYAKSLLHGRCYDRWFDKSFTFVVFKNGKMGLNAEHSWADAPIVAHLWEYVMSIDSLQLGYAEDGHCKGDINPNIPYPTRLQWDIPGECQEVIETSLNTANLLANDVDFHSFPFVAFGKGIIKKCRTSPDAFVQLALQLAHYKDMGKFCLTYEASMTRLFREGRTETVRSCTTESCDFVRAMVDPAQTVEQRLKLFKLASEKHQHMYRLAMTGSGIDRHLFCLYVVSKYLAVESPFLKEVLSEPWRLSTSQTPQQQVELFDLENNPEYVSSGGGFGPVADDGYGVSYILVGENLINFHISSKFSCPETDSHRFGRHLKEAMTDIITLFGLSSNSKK

[2] = biological target: T2, Carnitine O-palmitoyltransferase 1, liver isoform (Rattus norvegicus, UniProt P32198); experiment: as §1
T2 sequence (P32198 whole entry): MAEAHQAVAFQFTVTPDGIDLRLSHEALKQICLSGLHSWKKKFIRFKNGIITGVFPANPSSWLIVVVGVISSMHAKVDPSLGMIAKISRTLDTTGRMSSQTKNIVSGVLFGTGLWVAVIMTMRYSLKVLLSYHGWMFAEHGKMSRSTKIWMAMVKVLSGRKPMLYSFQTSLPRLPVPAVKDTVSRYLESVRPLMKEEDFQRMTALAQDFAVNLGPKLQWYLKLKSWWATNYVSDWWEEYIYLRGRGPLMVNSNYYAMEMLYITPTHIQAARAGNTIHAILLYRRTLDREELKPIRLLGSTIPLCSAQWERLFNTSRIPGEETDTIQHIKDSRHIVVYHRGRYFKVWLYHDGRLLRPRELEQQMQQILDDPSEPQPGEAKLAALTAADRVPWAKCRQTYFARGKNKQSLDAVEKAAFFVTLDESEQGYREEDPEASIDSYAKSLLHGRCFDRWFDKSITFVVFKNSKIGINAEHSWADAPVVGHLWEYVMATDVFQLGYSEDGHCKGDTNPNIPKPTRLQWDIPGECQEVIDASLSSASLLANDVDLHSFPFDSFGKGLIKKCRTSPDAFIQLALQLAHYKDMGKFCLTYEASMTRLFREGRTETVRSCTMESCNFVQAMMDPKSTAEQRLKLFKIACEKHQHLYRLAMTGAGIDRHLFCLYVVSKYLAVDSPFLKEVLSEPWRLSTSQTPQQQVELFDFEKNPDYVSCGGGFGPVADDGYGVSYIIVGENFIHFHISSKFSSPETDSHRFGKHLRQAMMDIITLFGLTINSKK

[3] = SUPPLEMENTARY: Lipophilicity (log D) Determination by high-throughput shake-flask; type: physicochemical; settings: octanol/water
[4] = biological target: T3, Carnitine O-palmitoyltransferase 2, mitochondrial (Homo sapiens, UniProt P23786); experiment: (§2) SUPPLEMENTARY: Inhibition of Carnitine palmitoyltransferase 2
T3 sequence (P23786 whole entry): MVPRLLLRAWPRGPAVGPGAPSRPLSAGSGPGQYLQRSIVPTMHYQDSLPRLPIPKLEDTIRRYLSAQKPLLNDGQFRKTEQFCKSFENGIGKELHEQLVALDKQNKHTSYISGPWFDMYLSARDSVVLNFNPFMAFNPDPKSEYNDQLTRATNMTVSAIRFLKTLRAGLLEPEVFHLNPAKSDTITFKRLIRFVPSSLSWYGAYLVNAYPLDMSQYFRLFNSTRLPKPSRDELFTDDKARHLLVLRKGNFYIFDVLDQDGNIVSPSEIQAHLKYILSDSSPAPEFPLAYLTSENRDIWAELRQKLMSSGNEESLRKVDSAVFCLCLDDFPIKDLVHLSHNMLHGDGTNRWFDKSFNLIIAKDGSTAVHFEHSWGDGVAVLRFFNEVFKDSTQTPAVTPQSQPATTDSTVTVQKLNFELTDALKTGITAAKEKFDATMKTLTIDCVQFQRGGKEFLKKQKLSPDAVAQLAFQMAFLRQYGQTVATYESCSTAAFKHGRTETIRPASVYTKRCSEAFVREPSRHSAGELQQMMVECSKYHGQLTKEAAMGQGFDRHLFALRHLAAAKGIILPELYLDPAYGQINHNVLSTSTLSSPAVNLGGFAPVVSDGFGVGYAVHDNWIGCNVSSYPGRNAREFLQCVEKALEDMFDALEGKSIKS

[5] = biological target: T4, Carnitine O-palmitoyltransferase 2, mitochondrial (Rattus norvegicus, UniProt P18886); experiment: as §2
T4 sequence (P18886 whole entry): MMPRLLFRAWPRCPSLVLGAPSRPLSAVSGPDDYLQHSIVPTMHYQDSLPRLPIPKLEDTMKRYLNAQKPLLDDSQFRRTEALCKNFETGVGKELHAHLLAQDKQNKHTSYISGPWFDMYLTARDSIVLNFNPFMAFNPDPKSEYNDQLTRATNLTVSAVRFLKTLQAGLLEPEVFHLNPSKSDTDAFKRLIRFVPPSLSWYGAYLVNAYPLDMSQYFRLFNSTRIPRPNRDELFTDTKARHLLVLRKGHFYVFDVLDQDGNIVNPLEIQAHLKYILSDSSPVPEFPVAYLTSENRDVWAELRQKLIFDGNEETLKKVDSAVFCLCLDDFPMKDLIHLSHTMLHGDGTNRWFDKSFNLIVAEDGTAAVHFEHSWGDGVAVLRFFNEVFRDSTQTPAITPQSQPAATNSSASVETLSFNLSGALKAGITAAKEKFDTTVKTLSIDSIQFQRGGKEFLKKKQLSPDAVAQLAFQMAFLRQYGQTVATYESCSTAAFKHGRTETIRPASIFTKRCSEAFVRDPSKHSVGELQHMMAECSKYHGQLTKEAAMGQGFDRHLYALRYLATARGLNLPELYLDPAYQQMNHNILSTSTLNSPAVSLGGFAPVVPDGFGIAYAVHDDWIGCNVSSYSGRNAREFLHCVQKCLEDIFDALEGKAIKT

[6] = biological target: T5, Carnitine O-palmitoyltransferase 1, muscle isoform (Homo sapiens, UniProt Q92523); experiment: SUPPLEMENTARY: Inhibition of Carnitine palmitoyltransferase 1, muscle isoform; parameters: species or system Muscle tissue
T5 sequence (Q92523 whole entry): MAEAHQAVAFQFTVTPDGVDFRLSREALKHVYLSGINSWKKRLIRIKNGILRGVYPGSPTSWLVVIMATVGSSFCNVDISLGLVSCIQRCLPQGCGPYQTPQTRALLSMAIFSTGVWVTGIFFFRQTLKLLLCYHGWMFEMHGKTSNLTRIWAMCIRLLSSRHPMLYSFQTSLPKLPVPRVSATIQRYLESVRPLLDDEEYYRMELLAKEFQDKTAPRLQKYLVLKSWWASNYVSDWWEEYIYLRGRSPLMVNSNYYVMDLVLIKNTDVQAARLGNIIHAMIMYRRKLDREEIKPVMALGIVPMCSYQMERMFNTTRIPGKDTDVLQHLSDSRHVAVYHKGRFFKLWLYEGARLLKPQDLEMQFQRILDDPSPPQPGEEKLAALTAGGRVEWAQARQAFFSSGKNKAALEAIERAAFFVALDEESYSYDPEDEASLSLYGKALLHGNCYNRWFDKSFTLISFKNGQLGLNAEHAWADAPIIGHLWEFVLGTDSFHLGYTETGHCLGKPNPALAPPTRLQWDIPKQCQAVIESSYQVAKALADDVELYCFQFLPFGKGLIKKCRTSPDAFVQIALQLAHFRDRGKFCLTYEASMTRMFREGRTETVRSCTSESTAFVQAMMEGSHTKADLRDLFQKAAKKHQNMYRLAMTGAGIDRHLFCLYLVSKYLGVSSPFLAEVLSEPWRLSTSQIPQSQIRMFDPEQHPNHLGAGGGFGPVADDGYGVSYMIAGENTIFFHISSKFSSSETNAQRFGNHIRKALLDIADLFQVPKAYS

[7] = SUPPLEMENTARY: PAMPA permeability assay; type: physicochemical; settings: read-out: Permeability
[8] = SUPPLEMENTARY: Lyophilisation Solubility Assay (LYSA); type: physicochemical; settings: read-out: Kinetic_solubility

| Compound | IC50 [1] | IC50 [2] | logD [3] | IC50 [4] | IC50 [5] | IC50 [6] | Papp [7] | solubility kinetic [8] |
| --- | --- | --- | --- | --- | --- | --- | --- | --- |
| O=C(O)Cc1csc(NC(=O)c2ccc3c(c2)N(S(=O)(=O)c2cccc(Cl)c2)CCO3)n1 | 22.6 nM | 11.5 nM | 0.37 | > 100000 nM | > 100000 nM | 618 nM | 2.91 ×10⁻⁶ cm/s | 54 µg/mL (≈ 109 µM) |
| Cc1cc(C)cc(S(=O)(=O)N2CCOc3ccc(C(=O)Nc4nc(CC(=O)O)cs4)cc32)c1 | 42.4 nM | 31.9 nM | 0.5 | > 100000 nM | > 100000 nM | 797 nM | 3.17 ×10⁻⁶ cm/s | > 615 µg/mL |
| COc1ccc(Cl)cc1S(=O)(=O)n1ccc2ccc(C(=O)Nc3ccc(CC(=O)O)cc3)cc21 | 206 nM | 82.8 nM | 1.1 | > 100000 nM | > 100000 nM | 2210 nM | 1.98 ×10⁻⁶ cm/s | 61 µg/mL (≈ 122 µM) |
| COc1ccc(C)cc1S(=O)(=O)n1ccc2ccc(C(=O)Nc3ccc(CC(=O)O)cc3)cc21 | 203 nM | 118 nM | 0.79 | 83900 nM | > 100000 nM | 1540 nM | 2.82 ×10⁻⁶ cm/s | 226 µg/mL (≈ 472 µM) |
| Nc1ccc(-c2n[nH]c([C@H]3CCCCN3C(=O)COc3ccccc3)n2)cn1 | 286 nM | 865 nM | 1.92 | 45300 nM | 66000 nM | > 100000 nM | 3.97 ×10⁻⁶ cm/s | 111 µg/mL (≈ 293 µM) |
| Cn1cc(S(=O)(=O)c2cccc(Cl)c2)c2cc(C(=O)Nc3nc(CC(=O)O)cs3)ccc21 | 75.4 nM | 54.5 nM | 0.25 | > 100000 nM | > 100000 nM | 439 nM | 0.95 ×10⁻⁶ cm/s | 26 µg/mL (≈ 53.1 µM) |
| O=C(O)Cc1ccc(NC(=O)c2ccc3ccn(S(=O)(=O)c4cccc(Cl)c4)c3c2)cc1 | 66.8 nM | 86.2 nM | 1.3 | > 100000 nM | > 100000 nM | 1350 nM | 2.24 ×10⁻⁶ cm/s | 17 µg/mL (≈ 36.3 µM) |
| CC(=O)NCc1cccc(-c2n[nH]c([C@H]3CCCCN3C(=O)COc3ccccc3)n2)c1 | 190 nM | 428 nM | 2.17 | 54300 nM | > 100000 nM | > 100000 nM | 4.04 ×10⁻⁶ cm/s | 295 µg/mL (≈ 680 µM) |
| COc1ccc(C)cc1S(=O)(=O)N1CCc2ccc(C(=O)Nc3ccc(CC(=O)O)cc3)cc21 | 237 nM | 174 nM | 0.11 | > 100000 nM | > 100000 nM | 2210 nM | 2.21 ×10⁻⁶ cm/s | 93 µg/mL (≈ 194 µM) |
| Cc1cc(C)cc(S(=O)(=O)N2CCc3ccc(C(=O)Nc4ccc(CC(=O)O)cc4)cc32)c1 | 187 nM | 133 nM | 2.42 | > 100000 nM | > 100000 nM | 6790 nM | 4.05 ×10⁻⁶ cm/s | 5 µg/mL (≈ 10.8 µM) |
